Measured values taken from patent US20240217946A1, “ANTIDEPRESSANT AND ANXIOLYTIC SUBSTITUTED CINNAMAMIDE COMPOUND” (TASLY PHARMACEUTICAL GROUP CO., LTD., priority 2021, published 2024).
“Also recorded” adds a separate entry of the source.

Experiments:
C57 BL/6 mice = assay: Mice tail suspension test after single oral administration; type: in vivo; settings: 30 min after single administration; for Immobility time within 6 min: n = 10, mean ± SD
Text: “Behavioral despair” models were developed by Porsolt et al. in 1977, including rats and mice forced swimming models and mice tail suspension models, which were acute stress models. Mice tail suspension experiment was a simple and easy-to-implement experimental method for evaluating antidepressant drugs introduced by Stern et al. in 1985, and its principle was the same as that of forced swimming “immobility” experiment.
40 mice were divided into 4 groups according to the Excel complete random grouping method, with 10 animals in each group. […] Therefore, in this experimental study, with 30 mg/kg as the low dosage of compound M2, 60 mg/kg was set as the high dosage of compound M2 to conduct research in comparison with 60 mg/kg compound I-5.
Each test group was administered intragastrically (i.g.) at 0.2 ml/10 g body weight.
Mice tail suspension test was carried out 30 min after a single oral administration, and the tail suspension lasted for 6 min. The immobility time of mice within 6 min was recorded.
(§1) Data was expressed as mean±standard (mean±SD) difference, and statistics of data differences were made by one-way analysis of variance (ANOVA) or nonparametric test, and differences between groups were determined by P<0.05.

SD rats = assay: Vogel drinking conflict experiment in rats, single administration; type: in vivo; settings: for Number of times of drinking water: 10 mg/kg i.g., 30 min after single dose, punishment stage 3 min, n = 8; for anxiolytic activity in drinking conflict experiment vs solvent control group: single intragastric administration of 20 mg/kg
Procedure: 75 male SD rats, with the body weight of 180-220 g, were fed adaptively for 1 week, water deprived for 24 h for training period test. The animals screened to be qualified were randomly divided into 7 groups (a solvent control group, estazolam group, compound M2 group, compound II-3 group, compound II-4 group, compound II-5 group and compound II-10 group) according to their body weight, with 8 rats in each group. […] results of 3.1: the positive drug estazolam was administered intragastrically at 1.24 mg/kg; and the solvent control group was gavaged with an equal volume of solvent. The grouped animals were continued to be water deprived for 24 h and were given a single dose, and tested in a punishment experiment 30 min after the single dose.
The experiment was carried out in two stages. The first stage is a training stage, in which 24 h after water deprivation, animals were placed in an operation box separately, and were allowed to fully explore until they found the bottle mouth and started to lick water (with an intensity of electric shock being 0 mA), a counter automatically recorded the number of licks within 3 min, and the animals that licked water less than 300 times were eliminated.
Observation index: the number of water licks of rats in the punishment stage.
as §1

mice [1] = settings: 10 mg/kg for 7 days; cited from earlier work
mice [2] = settings: 10 mg/kg continuously for 7 days; cited from earlier work
mice [3] = settings: mouse, in vivo; cited from earlier work
mice [4] = settings: Patent C; cited from earlier work
C57 BL/6J male mice = assay: Forced swimming experiment in mice; type: in vivo
Text: 1) Forced Swimming Experiment: Also Known as Despair Experiment, an Experiment Usually Used to Test Depression-Like Behavior of Mice
• Animal: C57 BL/6J male mice (18-20 g)
Intraperitoneal injection (i.p)

[5] = system: pyramidal neurons in prefrontal PrL brain area; assay: Brain slice electrophysiology, sEPSC of mPFC pyramidal neurons; type: cell-based, mice; settings: 10 nM, 10 μM, 150 μM; for sEPSC distribution frequency: concentration-dependent, significant at 150 μM
Text: 2) Brain Slice Electrophysiological Experiment: For Detecting Effect of Compound M2 on mPFC Excitatory Synaptic Transmission • Animal: neonatal mice C57 BL/6J (20-30 days). • Instrument: vibratome (Leica), brain slice electrophysiological system (Axon). • Brain slice electrophysiological experiment method • SEPSC experiment method: Neonatal C57 mice were anesthetized and then perfused with artificial cerebrospinal fluid (ACSF). After decapitation, brain tissue was taken quickly and sliced by vibratome, with a thickness of a brain slice being 300 μm. After the brain slices were incubated at 28 °C for 1 h, whole-cell recordings of mPFC pyramidal neurons were made using a voltage clamp (−70 mV) through a brain slice electrophysiological system. The baseline recording time was 6 min, and then a drug to be tested was added through a perfusion system (the drug was dissolved using ACSF), and the recording time after adding the drug was 6-10 min. Recorded data was analyzed using Minianalysis software, and effects of the drug to be tested on sEPSC frequency and amplitude of medial prefrontal pyramidal neurons in C57 mice were compared.
All data analysis was done using spss data processing software, and data was expressed by Mean±s.e.m. One-way ANOVA was used to analyze the effect of compound M2 and the effect of compound M2 under the action of dopamine receptor antagonists on sEPSC current: and paired t test was used to analyze sEPSC experimental results. * was marked when p<0.05.
During the experiment, 10 μM Bicuculine was added to the solution to block GABA receptor, so as to record sEPSC of pyramidal neurons. The experiment investigated effects of different concentrations of compound M2 on spontaneous excitatory postsynaptic […] (sEPSC) of pyramidal neurons in prefrontal PrL brain area, as shown in FIG. 2.

mTOR signaling pathway = assay: Western blot of prefrontal proteins after single administration; type: in vivo, mice; settings: 30 mg/kg
Procedure: 3) Western Blot: For Detecting Effect of Compound M2 on a Change in mPFC Protein Content • Animals: C57 BL/6J male mice (18-20 g), divided into four groups, i.e. the control group, fluoxetine group, compound M2 (30 mg/kg) group, and esketamine group. • Primary antibodies for experimental use
0.5 h/24 h after administration of C57 mice, brain tissue was sampled from the prefrontal brain area. After tissue samples were lysed and homogenized, quantification of proteins was performed using the BCA method, and changes in protein content in the prefrontal brain area 0.5 h/24 h after intraperitoneal administration of compound M2 were detected by steps of SDS-PAGE gel preparation, sample loading and electrophoresis, membrane transfer, sealing, primary antibody incubation, secondary antibody incubation, protein detection (development and fixation), etc.

| Structure (SMILES) | Immobility time within 6 min (C57 BL/6 mice; 60 mg/kg i.g.) | effect on immobility time of mice in tail suspension vs blank group (C57 BL/6 mice; 60 mg/kg) | Number of times of drinking water (SD rats) | anxiolytic activity in drinking conflict experiment vs solvent control group (SD rats) | immobility time of tail suspension in mice (mice [1]) | reserpine-induced body temperature decrease and akinesia in mice, degree of eye closure (mice [2]) | immobility time of forced swimming in mice (mice [3]) | effective anxiolytic dosage in mice elevated plus maze experiment (mice [4]) | antidepressant-like effect (C57 BL/6J male mice; 24 h after a single i.p. administration, fluoxetine 10 mg/kg, esketamine 10 mg/kg, M2 3-30 mg/kg) | immobility time of mice in forced swimming (C57 BL/6J male mice; 24 h after single i.p. administration, dosage effect, significant at 30 mg/kg, 30 mg/kg) | sEPSC distribution amplitude [5] | sEPSC distribution frequency [5] | sEPSC distribution frequency ([5]; listed as compound M2) | sEPSC distribution amplitude ([5]; listed as compound M2) | medial prefrontal p-TrkB content (mTOR signaling pathway; 0.5 h after administration) | medial prefrontal p-mTOR content (mTOR signaling pathway; 0.5 h after administration) | total content (mTOR, TrkB) (mTOR signaling pathway; 0.5 h after administration) | content of medial prefrontal synaptogenesis-related protein PSD95 (mTOR signaling pathway; 24 h after single administration) | Immobility time within 6 min (C57 BL/6 mice; 30 mg/kg i.g.) | effect on immobility time of mice in tail suspension vs blank group (C57 BL/6 mice; 30 mg/kg) |
| --- | --- | --- | --- | --- | --- | --- | --- | --- | --- | --- | --- | --- | --- | --- | --- | --- | --- | --- | --- | --- |
| CC(C)CNC(=O)/C=C/c1cc2c(c(C(F)(F)F)c1)OCO2 [Compound I-5] | 218.0 ± 35.3 s | not significantly affected | 478.02 ± 106.32 | significant anxiolytic activity | significantly shorten the immobility time | significantly antagonizing | significantly shorten the immobility time | 10 mg/kg |  |  |  |  |  |  |  |  |  |  |  |  |
| NC(=O)/C=C/c1cc2c(c(C(F)(F)F)c1)OCO2 [Compound M2] | 171.8 ± 21.7 s | significantly shortened | 527.26 ± 143.66 | significant anxiolytic activity |  |  |  |  | had antidepressant-like effect | reduce the immobility time; also recorded: significantly reduced | did not have significant effect | increased | significantly enhance | does not have a significant effect | increased | increased | remaining unchanged | significantly increased | 183.9 ± 43.5 s | no statistically significant difference |
